Reference: patent EP0088602A2, “Microbiological oxidation process” (EXXON RESEARCH AND ENGINEERING COMPANY, priority 1982, dated 1983)
Several values for one entry are separate records, joined by “and”; a condition that tells them apart may be missing. Equal entries are not always repeated. Where two headings read alike, the source gives them in different places.

Key:
[1] = test system: Soluble Methane Monooxygenase from Methylobacterium organophilum (ATCC 27,886); assay: Oxidation of alkanes/alkenes with NADH2 regenerated by secondary alcohol dehydrogenase (Example 22); assay type: biochemical
Description: (§1) The vials were incubated at 35°C on a reciprocating water bath shaker at 50 oscillations per minute.. The gaseous phase of the vials was evacuated by vacuum and replaced with a gaseous mixture consisting of 1:1 by volume oxygen:the alkane substrate indicated in Table XVIII, at which point the reaction was initiated.
(§2) The rate of oxidation of the alkane substrates was measured either by estimation of products formed or by amount of substrate utilized from the gas or liquid phase. In the former case, 1-2 µ 1 samples of the reaction mixture were injected into a gas chromatograph immediately after addition of substrate (zero time) and after 4 and 8 min. of incubation. Specific activities were expressed as nmoles of product formed per min. per mg of protein, with the higher number representing better conversion. If substrate utilization was the measure of oxidation rate, […] of liquid or 50 Al of gas was injected into the gas chromatograph at zero time and after 4 and 8 min. of incubation of the reaction mixture at 35°C, and specific activities were expressed as the amount of substrate utilized per min. per mg. of protein. Regardless of the procedure employed, control experiments were conducted for each substrate in the absence of NADH2, in the absence of oxygen, and using boiled extracts.
(§3) The alcohol products were identified and estimated by retention time comparisons and co-chromatography with authentic standards using flame-ionization gas chromatography. The column temperature was maintained isothermally between 80°C and 130°C with helium carrier gas flow rates of 20-40 ml per min. The amount of product formed was estimated from peak areas using a standard graph constructed using authentic compounds.
(§4) Duplicate measurements were carried out for each substrate. Protein concentrations in cellular fractions were estimated with Folin Ciocalteu reagent as described by O.H. Lowry et al., supra, using bovine serum albumin as a standard.

[2] = test system: Secondary Alcohol Dehydrogenase; assay: Dehydrogenation of the secondary alcohol in the coupled reaction (Example 22); assay type: biochemical, yeast Pichia sp.; conditions: NAD^+
Description: The procedure of Example 15 was followed using 1.0 ml of a reaction mixture consisting of 50 µ moles potassium phosphate buffer at pH 7.0, 10 µ moles NAD^+, 10 µ moles secondary alcohol (either 2-butanol or 2-propanol), and, as the remainder, secondary alcohol dehydrogenase from yeast Pichia sp. and the soluble S(80) fraction obtained as described in Example 14. The dehydrogenase was previously purified as described in Patel et al., Eur. J. Biochem., 101, 401 (1979).

[3] = test system: Soluble Methane Monooxygenase; assay: Effect of potential inhibitors on propylene oxidation by the soluble S(80) fraction (Example 9); assay type: biochemical, Methylobacterium organophilum (CRL.26)
Description: (§5) The vials were incubated at 35 °C on a reciprocating water bath shaker at 50 oscillations per minute. […]
[…] Specific activities were expressed as nmoles of product formed per min. per mg. of protein, with the higher number representing better conversion. With each substrate, control experiments were conducted in the absence of NADH2, in the absence of oxygen, and using boiled extracts.
[…] The column temperature was maintained isothermally between 80 °C and 200°C with helium carrier gas flow rates of 20-40 ml per min. The amount of product formed was estimated from peak areas using a standard graph constructed using authentic compounds.
(§6) Duplicate measurements were carried out for each substrate.

[4] = target: T1, soluble methane monooxygenase from Methylococcus capsulatus (Bath) (Methylococcus capsulatus, UniProt P22869); assay type: biochemical; design: host or cells: soluble fraction of Methylococcus capsulatus Strain Bath; conditions: comparison with CRL.26 in Example 9
T1 sequence (P22869 whole entry): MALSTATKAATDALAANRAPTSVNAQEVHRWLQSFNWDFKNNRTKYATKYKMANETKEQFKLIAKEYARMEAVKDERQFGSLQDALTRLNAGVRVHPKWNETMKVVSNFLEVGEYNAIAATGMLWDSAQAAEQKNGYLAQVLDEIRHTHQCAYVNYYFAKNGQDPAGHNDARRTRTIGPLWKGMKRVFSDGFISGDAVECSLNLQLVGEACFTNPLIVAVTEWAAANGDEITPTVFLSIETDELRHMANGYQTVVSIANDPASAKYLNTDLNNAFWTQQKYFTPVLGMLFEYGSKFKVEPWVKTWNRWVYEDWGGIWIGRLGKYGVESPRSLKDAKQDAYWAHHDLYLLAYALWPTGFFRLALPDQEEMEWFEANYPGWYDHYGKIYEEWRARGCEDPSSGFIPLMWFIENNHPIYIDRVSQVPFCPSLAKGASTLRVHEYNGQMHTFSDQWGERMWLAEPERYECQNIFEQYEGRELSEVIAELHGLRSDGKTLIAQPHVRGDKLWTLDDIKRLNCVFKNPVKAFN
T1 sequence (P18798 whole entry, further chain): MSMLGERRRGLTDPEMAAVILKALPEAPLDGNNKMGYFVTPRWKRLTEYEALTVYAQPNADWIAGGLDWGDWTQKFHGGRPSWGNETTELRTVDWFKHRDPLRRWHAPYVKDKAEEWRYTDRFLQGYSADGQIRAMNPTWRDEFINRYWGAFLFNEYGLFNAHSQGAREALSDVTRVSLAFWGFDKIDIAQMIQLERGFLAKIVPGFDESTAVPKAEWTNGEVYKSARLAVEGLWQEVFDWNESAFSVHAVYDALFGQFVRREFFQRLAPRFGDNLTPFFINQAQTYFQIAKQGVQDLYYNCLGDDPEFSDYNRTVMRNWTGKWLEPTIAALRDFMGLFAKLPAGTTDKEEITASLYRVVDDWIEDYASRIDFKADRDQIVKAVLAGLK
T1 sequence (P11987 whole entry, further chain): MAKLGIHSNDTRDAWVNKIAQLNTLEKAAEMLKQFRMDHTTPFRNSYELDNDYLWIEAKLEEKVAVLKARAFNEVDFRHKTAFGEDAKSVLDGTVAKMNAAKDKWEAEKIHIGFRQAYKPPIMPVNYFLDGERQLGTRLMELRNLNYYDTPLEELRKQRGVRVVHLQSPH

[5] = test system: Methane Monooxygenase from Methylobacterium sp. CRL.26; assay: Hydroxylation of alkanes / epoxidation of alkenes with NADH2 regenerated by formaldehyde dehydrogenase (Example 12, Table XV); assay type: biochemical
Description: The vials were incubated at 35 °C on a reciprocating water bath shaker at 50 oscillations per minute. The gaseous phase of the vials was evacuated by vacuum and replaced with a 1 to 1 by volume gaseous mixture of the alkane substrate indicated in Table III to oxygen, at which point the reaction was initiated.
(§7) The rate of oxidation of the alkanes was measured by injecting 1-2 µ 1 samples of the reaction mixture into a gas chromatograph immediately after addition of substrate (zero time) and after 5 and 10 min. of incubation. Specific activities were expressed as nmoles of product formed per min. per mg. of protein, with the higher number representing better conversion. With each substrate, control experiments were conducted in the absence of NADH2, in the absence of oxygen, and using boiled extracts.
as §3, with “80 °C” for “80°C”, “200°C” for “130°C”
Duplicate measurements were carried out for each substrate. Protein concentrations in cellular fractions were estimated with Folin Ciocalteu reagent as described by O.H. Lowry et al., J. Biol. Chem., 193, 265 (1951), using bovine serum albumin as a standard.

[6] = test system: Soluble Methane Monooxygenase from Methylobacterium organophilum (ATCC 27,886); assay: Oxidation of alkanes/alkenes with NADH2 regenerated by formate and NAD+ (Example 20); assay type: biochemical
Description: as §1, §2, §3, §4

[7] = test system: Soluble Methane Monooxygenase from Methylobacterium organophilum (ATCC 27,886); assay: Hydroxylation of alkanes / epoxidation of alkenes with NADH2 regenerated by formaldehyde dehydrogenase (Example 21); assay type: biochemical
Description: as §1, §2, §3, §4

[8] = test system: Soluble Methane Monooxygenase; assay: Effect of various cofactor systems on propylene oxidation by the soluble S(80) fraction (Examples 7, 11); assay type: biochemical, Methylobacterium organophilum (CRL.26); conditions: propylene substrate; for Specific Activity: cofactor system at 2.5 mM; for suitability as cofactor system / electron donor (in words): replacing NADH2
Description: as §5, §7
as §3, with “80 °C” for “80°C”, “200°C” for “130°C”
as §6

[9] = test system: soluble methane monooxygenase; assay: Other electron donors in place of NADH2 (Example 23); assay type: biochemical, Methylobacterium organophilum (ATCC 27,886); conditions: as electron donor replacing NADH2 in the procedure of Example 15
Description: as §1, §2

[10] = target: T1, soluble methane monooxygenase from Methylococcus capsulatus (Bath); conditions: cited from earlier work
[11] = target: soluble methane monooxygenase from Methylosinus trichosporium (OB3b) (Methylosinus trichosporium, UniProt P27353); conditions: cited from earlier work
soluble methane monooxygenase from Methylosinus trichosporium (OB3b), sequence (P27354 whole entry): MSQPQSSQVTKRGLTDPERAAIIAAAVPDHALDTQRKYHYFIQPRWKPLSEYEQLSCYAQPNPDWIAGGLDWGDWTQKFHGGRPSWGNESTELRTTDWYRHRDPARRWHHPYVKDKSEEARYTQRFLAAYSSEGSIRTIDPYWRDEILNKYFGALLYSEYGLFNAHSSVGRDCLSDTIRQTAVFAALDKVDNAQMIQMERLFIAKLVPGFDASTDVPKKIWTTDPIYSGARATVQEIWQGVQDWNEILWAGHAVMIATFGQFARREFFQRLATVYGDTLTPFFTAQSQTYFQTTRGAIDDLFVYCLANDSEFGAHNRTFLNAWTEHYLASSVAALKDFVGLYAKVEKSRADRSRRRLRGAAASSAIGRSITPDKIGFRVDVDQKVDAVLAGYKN
soluble methane monooxygenase from Methylosinus trichosporium (OB3b), sequence (P27355 whole entry, further chain): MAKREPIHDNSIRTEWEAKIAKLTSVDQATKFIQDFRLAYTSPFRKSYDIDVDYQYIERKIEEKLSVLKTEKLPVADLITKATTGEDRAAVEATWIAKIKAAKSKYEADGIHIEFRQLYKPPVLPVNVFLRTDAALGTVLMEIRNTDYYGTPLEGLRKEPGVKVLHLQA
soluble methane monooxygenase from Methylosinus trichosporium (OB3b), sequence (P27353 whole entry): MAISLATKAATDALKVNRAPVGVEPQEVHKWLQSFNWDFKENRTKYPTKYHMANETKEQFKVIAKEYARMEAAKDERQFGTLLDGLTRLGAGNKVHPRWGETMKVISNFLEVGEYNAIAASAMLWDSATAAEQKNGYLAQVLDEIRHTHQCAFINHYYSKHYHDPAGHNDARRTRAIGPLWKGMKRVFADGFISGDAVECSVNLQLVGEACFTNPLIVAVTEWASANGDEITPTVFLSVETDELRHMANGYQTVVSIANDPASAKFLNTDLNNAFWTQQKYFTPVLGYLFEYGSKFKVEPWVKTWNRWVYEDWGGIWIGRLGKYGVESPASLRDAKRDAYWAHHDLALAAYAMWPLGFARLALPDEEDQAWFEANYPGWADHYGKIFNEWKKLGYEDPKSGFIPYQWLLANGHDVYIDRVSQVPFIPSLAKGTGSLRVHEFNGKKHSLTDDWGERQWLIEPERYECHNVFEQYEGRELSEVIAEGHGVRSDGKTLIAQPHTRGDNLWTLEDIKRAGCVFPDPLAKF

[12] = inhibitor 1 mM, incubated at 0°C for 15 min, propylene substrate, percentage of control (100%) containing no inhibitor
[13] = inhibitor 1 mM, incubated at 0°C for 15 min, propylene substrate, percentage of control containing no inhibitor
[14] = inhibitor 0.1 mM, incubated at 0°C for 15 min, propylene substrate, percentage of control (100%) containing no inhibitor
[15] = inhibitor 0.1 mM, incubated at 0°C for 15 min, propylene substrate, percentage of control containing no inhibitor

With `CC(C)O` [2-Propanol] the “Rate of Product Formation” value ([1]; product 2-Butanone, substrates Butane and 2-Propanol, NAD^+, secondary alcohol dehydrogenase) was 10 nmoles/ min/mg of protein, the “Rate of Product Formation” value ([2]; product Acetone, substrates Butane and 2-Propanol) was 45 nmoles/ min/mg of protein and the “Rate of Product Formation” value ([2]; product Acetone, substrates Isobutylene and 2-Propanol) was 45 nmoles/ min/mg of protein.
With `CCN1C(=O)C=CC1=O` [N-Ethylmaleimide] the “Activity (%)” value [3, 12] was 102% and the “Inhibition (%)” value [3, 13] was 0%.
In the case of `c1cnc2c(c1)ccc1cccnc12` [1,10-Phenanthroline], the “inhibition of soluble methane monooxygenase activity (in words)” value [3] is reported as “not inhibited”, the “Activity (%)” value [3, 12] is reported as 67% and the “Inhibition (%)” value [3, 13] is reported as 33%. For the same molecule, the “inhibited activity of Methylobacterium organophilum (CRL.26)” value ([3]; statement in the text of Example 9) was “about 30%” and the “inhibition of the activity of Methylococcus capsulatus (Bath) (in words)” value [4] was “did not inhibit”.
In the case of `NC(=O)CI` [Iodoacetamide], the “inhibition of soluble methane monooxygenase activity (in words)” value [3] is reported as “inhibit”, the “Activity (%)” value [3, 12] is reported as 20% and the “Inhibition (%)” value [3, 13] is reported as 80%.
In the case of `NNC(N)=S` [Thiosemicarbazide], the “inhibition of soluble methane monooxygenase activity (in words)” value [3] is reported as “not inhibited”, the “Activity (%)” value [3, 12] is reported as 108% and the “Inhibition (%)” value [3, 13] is reported as 0%.
For Acriflavin, the “inhibition of soluble methane monooxygenase activity (in words)” value [3] was “inhibit”, the “Activity (%)” value [3, 14] was 71% and the “Inhibition (%)” value [3, 15] was 29%.
For 2-Butanol, the “Rate of Product Formation” value ([1]; product Acetone, substrates Propane and 2-Butanol, NAD^+, secondary alcohol dehydrogenase) was 18 nmoles/ min/mg of protein, the “Rate of Product Formation” value ([2]; product 2-Butanone, substrates Ethane and 2-Butanol) was 48 nmoles/ min/mg of protein and the “Rate of Product Formation” value ([2]; product 2-Butanone, substrates Ethylene and 2-Butanol) was 45 nmoles/ min/mg of protein. The “Rate of Product Formation” value ([2]; product 2-Butanone, substrates Methane and 2-Butanol) was 50 nmoles/ min/mg of protein, the “Rate of Product Formation” value ([2]; product 2-Butanone, substrates Propane and 2-Butanol) was 45 nmoles/ min/mg of protein and the “Rate of Product Formation” value ([2]; product 2-Butanone, substrates Propylene and 2-Butanol) was 50 nmoles/ min/mg of protein.
In the case of `C` [Methane], the “Rate of Product Formation” value ([5]; product Methanol, NAD^+, formaldehyde, reduced glutathione, formaldehyde dehydrogenase from Pichia sp., pH 7.0) is reported as 128 nmoles/min/mg protein.
With `O=C(O)c1cc[c]([Hg+])cc1.[OH-]` [p-Hydroxymercuribenzoate] the “Activity (%)” value [3, 14] was 100% and the “Inhibition (%)” value [3, 15] was 0%.
For `C=CC` [Propylene], the “uninhibited rate of propylene oxidation” value ([3]; no inhibitor, substrate propylene) was “(b) The uninhibited rate of propylene oxidation was 100 nmoles of propylene oxide produced/min/mg of protein”, the “Rate of Product Formation” value ([5]; product Propylene Oxide, NAD^+, formaldehyde, reduced glutathione, formaldehyde dehydrogenase, pH 7.0) was 250 nmoles/min/mg protein and the “Rate of Product Formation” value ([6]; product Propylene Oxide, NAD^+ and sodium formate, pH 7.0) was 54 nmoles/ min/mg of protein. The “Rate of Product Formation” value ([7]; product Propylene Oxide, NAD^+, reduced glutathione, formaldehyde, formaldehyde dehydrogenase, pH 7.0) was 52 nmoles/ min/mg of protein and the “Rate of Product Formation” value ([1]; product Propylene oxide, substrates Propylene and 2-Butanol, NAD^+, secondary alcohol dehydrogenase) was 48 nmoles/ min/mg of protein.
For `CC` [Ethane], the “Rate of Product Formation” value ([5]; product Ethanol, NAD^+, formaldehyde, reduced glutathione, formaldehyde dehydrogenase, pH 7.0) was 145 nmoles/min/mg protein.
In the case of `O=C(O)c1cc(SSc2ccc([N+](=O)[O-])c(C(=O)O)c2)ccc1[N+](=O)[O-]` [5,5'-dithiobis-2-nitrobenzoate], the “inhibition of soluble methane monooxygenase activity (in words)” value [3] is reported as “inhibit”, the “Activity (%)” value [3, 12] is reported as 38% and the “Inhibition (%)” value [3, 13] is reported as 62%.
In the case of `C=CCC` [1-Butene], the “Rate of Product Formation” value ([5]; pH 7) is reported as 180 nmoles/min/mg protein and the “Rate of Product Formation” value ([6]; pH 7) is reported as 35 nmoles/ min/mg of protein.
With `C=C` [Ethylene] the “Rate of Product Formation” value ([5]; pH 7) was 140 nmoles/min/mg protein, the “Rate of Product Formation” value ([6]; pH 7) was 28 nmoles/ min/mg of protein and the “Rate of Product Formation” value ([7]; pH 7) was 28 nmoles/ min/mg of protein. For the same molecule, the “Rate of Product Formation” value [1] was 25 nmoles/ min/mg of protein.
With `C=C(C)C` [Isobutylene] the “Rate of Product Formation” value ([1]; product Epoxyisobutylene, substrates Isobutylene and 2-Propanol, NAD^+, secondary alcohol dehydrogenase) was 29 nmoles/ min/mg of protein.
In the case of `NC(=O)C1=CN([C@@H]2O[C@H](COP(=O)(O)OP(=O)(O)OC[C@H]3O[C@@H](n4cnc5c(N)ncnc54)[C@H](OP(=O)(O)O)[C@@H]3O)[C@@H](O)[C@H]2O)C=CC1` [NADPH2, nicotinamide adenine dinucleotide phosphate in the reduced form], the “Specific Activity” value [8] is reported as 70 nmoles/min/mg of protein and the “suitability as cofactor system / electron donor (in words)” value [8] is reported as “suitable”.
In the case of `CCC` [Propane], the “Rate of Product Formation” value ([5]; product Propan-1-ol, NAD^+, formaldehyde, reduced glutathione, formaldehyde dehydrogenase, pH 7.0) is reported as 60 nmoles/min/mg protein and the “Rate of Product Formation” value ([5]; product Propan-2-ol, NAD^+, formaldehyde, reduced glutathione, formaldehyde dehydrogenase, pH 7.0) is reported as 95 nmoles/min/mg protein.
In the case of `NC(=O)C1=CN([C@@H]2O[C@H](COP(=O)(O)OP(=O)(O)OC[C@H]3O[C@@H](n4cnc5c(N)ncnc54)[C@H](O)[C@@H]3O)[C@@H](O)[C@H]2O)C=CC1` [NADH2, nicotinamide adenine dinucleotide in the reduced form], the “Specific Activity” value [8] is reported as 100 nmoles/min/mg of protein, the “suitability as cofactor system / electron donor (in words)” value [8] is reported as “suitable” and the “soluble methane monooxygenase activity observed” value [9] is reported as “about 70%”.
With `Oc1cccc2cccnc12` [8-Hydroxyquinoline] the “Activity (%)” value [3] was 117%, the “Inhibition (%)” value [3] was 0% and the “inhibition of soluble methane monooxygenase activity (in words)” value [3] was “not inhibitory”. For the same molecule, the “inhibition of soluble methane monooxygenase (in words)” value [10] was “strongly inhibits” and the “inhibition of soluble methane monooxygenase (in words)” value [11] was “strongly inhibits”.
For `CCCC` [Butane], the “Rate of Product Formation” value ([5]; pH 7) was 250 nmoles/min/mg protein and 150 nmoles/min/mg protein, the “Rate of Product Formation” value ([7]; pH 7) was 20 nmoles/ min/mg of protein and 10 nmoles/ min/mg of protein and the “Rate of Product Formation” value [1] was 15 nmoles/ min/mg of protein.
